The source of these data is patent publication US20040048350A1 (priority 2001, published 2004).

In test [1] the target is T1, Taq RNAP holoenzyme (Thermus aquaticus, UniProt Q9KWU7).
T1 construct: Taq core RNAP purified from Taq cells; made in house; host or cells: core: purified natively from Thermus aquaticus cells; σA: recombinant in E. coli
The test can be described thus: Transcription assay, T7A1 promoter template, rifampicin inhibition of Taq RNAP holoenzyme. The format is biochemical. The following applies: CpA primer, 37° C., read-out: Ki (estimated from the rifampicin concentration where the production of long transcripts was inhibited by 50%). The source says:
(§1) FIG. 2a depicts autoradiographs showing the radioactive RNA produced by Taq (lanes 1-7) and E. coli (lanes 8-13) RNAP holoenzymes transcribing a template containing the T7 A1 promoter and the tR2 terminator, analyzed on a 15% polyacrylamide gel and quantitated by phosphorimagery. In the absence of rifampicin (lanes 1 and 8), the major RNA products from each RNAP correspond to a trimeric abortive product (CpApU), a 105 nucleotide terminated transcript (Term), and a 127 nucleotide runoff transcript (Run off). Lanes 2-7 and 9-13 show the effects of increasing concentrations of rifampicin. […] Rif-nucleotide compounds (Rif-(CH2)n-Ap) with different linker lengths, n (indicated above each lane) were bound to RNAP, then extended in a specific transcription reaction with α-[^32P]UTP by the RNAP catalytic activity. The products were analyzed on a 23% polyacrylamide gel, visualized by autoradiography, and quantitated by phosphorimagery.
(§2) The transcription assay comparing rifampicin inhibition of E.coli and Taq RNAPs (FIG. 2a) was performed as previously described [Nudler et al., Science 265:793-796 (1994)]. Briefly, 0.1 pmol of purified Taq core RNAP [Zhang et al., Cell 98:811-824 (1999); U.S. Ser. No. 09/396,651, Filed Sep. […] Radioactive RNA products were analyzed on a 15% polyacrylamide sequencing gel.

The target of test [2] is E. coli RNAP holoenzyme (Escherichia coli, UniProt P0A8V2). The test can be described thus: Transcription assay, T7A1 promoter template, rifampicin inhibition of E. coli RNAP holoenzyme. The format is biochemical. The following applies: CpA primer, 37° C., read-out: Ki (estimated from the rifampicin concentration where the production of long transcripts was inhibited by 50%).
Source text: as §1, §2

E. coli RNAP holoenzyme, sequence (P0A8V2 whole entry): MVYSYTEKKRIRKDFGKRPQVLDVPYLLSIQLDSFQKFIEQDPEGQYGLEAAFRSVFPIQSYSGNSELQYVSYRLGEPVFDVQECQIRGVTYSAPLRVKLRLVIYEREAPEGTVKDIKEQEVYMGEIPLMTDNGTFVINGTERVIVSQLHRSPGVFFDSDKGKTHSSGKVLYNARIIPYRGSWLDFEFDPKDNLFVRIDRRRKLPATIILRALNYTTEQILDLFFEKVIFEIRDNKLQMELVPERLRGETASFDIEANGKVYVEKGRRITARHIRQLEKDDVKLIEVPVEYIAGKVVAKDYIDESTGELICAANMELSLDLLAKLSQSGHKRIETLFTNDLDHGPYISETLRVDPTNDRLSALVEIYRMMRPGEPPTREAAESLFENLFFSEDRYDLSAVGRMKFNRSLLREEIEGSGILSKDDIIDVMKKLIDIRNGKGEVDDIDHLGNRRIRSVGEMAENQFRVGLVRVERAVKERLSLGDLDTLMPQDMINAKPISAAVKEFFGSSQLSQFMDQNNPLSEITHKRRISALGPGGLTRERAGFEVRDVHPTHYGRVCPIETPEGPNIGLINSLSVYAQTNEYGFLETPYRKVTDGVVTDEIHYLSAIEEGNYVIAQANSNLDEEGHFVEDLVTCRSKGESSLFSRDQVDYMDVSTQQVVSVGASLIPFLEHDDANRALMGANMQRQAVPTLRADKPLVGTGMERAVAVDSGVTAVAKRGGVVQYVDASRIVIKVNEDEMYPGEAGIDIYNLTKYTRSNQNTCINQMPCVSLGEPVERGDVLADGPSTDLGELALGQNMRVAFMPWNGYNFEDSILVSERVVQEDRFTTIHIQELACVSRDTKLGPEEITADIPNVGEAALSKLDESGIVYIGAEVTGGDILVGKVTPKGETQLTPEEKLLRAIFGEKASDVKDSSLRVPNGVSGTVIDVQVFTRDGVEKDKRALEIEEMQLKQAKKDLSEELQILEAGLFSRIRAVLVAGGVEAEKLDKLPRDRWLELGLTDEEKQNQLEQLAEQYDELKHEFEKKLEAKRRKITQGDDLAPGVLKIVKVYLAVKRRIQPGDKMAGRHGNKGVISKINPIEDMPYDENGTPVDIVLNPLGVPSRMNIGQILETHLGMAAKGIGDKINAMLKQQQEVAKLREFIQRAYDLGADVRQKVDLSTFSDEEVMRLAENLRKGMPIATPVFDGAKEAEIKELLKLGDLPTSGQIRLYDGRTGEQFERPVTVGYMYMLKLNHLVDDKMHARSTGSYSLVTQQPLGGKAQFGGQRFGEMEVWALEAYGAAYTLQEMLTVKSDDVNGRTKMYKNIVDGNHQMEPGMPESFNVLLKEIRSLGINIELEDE
E. coli RNAP holoenzyme, sequence (P0A8T7 whole entry partner): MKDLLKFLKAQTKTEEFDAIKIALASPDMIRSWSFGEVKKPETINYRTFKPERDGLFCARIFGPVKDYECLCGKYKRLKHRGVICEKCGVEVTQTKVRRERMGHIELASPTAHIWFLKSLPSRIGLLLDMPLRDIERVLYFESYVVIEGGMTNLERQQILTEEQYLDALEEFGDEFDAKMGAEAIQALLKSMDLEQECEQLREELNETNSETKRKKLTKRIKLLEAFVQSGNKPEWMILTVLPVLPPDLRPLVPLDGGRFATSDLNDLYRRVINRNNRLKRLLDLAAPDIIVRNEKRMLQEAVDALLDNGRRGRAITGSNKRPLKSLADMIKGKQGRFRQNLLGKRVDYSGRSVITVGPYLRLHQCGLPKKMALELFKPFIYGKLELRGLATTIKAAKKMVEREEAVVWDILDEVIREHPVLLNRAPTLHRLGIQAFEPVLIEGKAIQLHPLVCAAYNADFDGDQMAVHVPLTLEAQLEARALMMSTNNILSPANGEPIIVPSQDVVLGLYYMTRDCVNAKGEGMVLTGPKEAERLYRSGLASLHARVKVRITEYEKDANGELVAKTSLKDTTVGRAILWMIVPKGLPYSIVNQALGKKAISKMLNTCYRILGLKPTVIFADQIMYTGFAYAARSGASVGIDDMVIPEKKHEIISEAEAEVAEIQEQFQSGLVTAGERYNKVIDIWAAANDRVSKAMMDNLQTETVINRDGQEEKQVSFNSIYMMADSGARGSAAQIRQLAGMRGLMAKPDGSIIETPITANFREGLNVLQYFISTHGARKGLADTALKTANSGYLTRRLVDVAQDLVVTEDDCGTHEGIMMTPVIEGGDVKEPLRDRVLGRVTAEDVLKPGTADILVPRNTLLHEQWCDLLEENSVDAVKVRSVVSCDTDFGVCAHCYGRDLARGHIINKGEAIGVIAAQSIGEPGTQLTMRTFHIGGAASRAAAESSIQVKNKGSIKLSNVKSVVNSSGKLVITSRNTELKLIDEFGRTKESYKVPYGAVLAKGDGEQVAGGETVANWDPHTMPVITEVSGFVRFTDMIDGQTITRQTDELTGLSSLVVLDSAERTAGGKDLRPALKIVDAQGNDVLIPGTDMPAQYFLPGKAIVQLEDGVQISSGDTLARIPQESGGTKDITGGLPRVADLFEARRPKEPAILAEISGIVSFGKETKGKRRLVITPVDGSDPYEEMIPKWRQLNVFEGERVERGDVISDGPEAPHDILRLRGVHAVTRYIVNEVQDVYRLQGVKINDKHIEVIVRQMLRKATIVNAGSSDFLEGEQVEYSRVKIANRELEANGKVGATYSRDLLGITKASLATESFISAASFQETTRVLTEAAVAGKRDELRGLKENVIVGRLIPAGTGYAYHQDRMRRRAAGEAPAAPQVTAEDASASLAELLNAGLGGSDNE
E. coli RNAP holoenzyme, sequence (P0A7Z4 whole entry partner): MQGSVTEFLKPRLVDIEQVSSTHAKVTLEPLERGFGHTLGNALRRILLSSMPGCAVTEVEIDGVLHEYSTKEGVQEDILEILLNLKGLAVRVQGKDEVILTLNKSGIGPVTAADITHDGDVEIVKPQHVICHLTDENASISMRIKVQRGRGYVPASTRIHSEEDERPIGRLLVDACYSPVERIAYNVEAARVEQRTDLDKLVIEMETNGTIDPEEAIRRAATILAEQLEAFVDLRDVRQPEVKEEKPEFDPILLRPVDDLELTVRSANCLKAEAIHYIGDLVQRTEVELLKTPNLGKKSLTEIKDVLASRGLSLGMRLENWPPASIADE
E. coli RNAP holoenzyme, sequence (P0A800 whole entry partner): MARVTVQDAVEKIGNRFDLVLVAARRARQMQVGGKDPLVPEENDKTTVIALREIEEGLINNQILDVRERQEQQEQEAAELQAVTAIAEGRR
E. coli RNAP holoenzyme, sequence (P00579 whole entry partner): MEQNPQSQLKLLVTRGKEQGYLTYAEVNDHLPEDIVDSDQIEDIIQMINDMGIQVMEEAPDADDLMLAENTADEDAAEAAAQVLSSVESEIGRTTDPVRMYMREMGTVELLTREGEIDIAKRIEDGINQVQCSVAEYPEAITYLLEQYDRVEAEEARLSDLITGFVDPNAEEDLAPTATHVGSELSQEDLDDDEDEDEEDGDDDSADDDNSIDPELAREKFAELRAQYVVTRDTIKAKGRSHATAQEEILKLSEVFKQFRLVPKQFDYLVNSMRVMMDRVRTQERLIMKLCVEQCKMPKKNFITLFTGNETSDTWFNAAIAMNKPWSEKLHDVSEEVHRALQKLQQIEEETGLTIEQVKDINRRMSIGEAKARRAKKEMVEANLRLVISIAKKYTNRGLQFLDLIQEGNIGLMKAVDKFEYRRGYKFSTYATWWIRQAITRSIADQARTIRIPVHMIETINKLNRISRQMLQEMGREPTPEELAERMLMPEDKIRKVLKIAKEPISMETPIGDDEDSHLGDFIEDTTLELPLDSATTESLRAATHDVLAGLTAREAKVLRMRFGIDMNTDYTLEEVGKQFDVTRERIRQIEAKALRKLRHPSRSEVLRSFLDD

Turning to `CO[C@H]1/C=C/O[C@@]2(C)Oc3c(C)c(O)c4c(O)c(c(/C=N/N5CCN(C)CC5)c(O)c4c3C2=O)NC(=O)/C(C)=C\C=C\[C@H](C)[C@H](O)[C@@H](C)[C@@H](O)[C@@H](C)[C@H](OC(C)=O)[C@@H]1C` [rifampicin], the Ki in test [1] is ~10 µM; in test [2], ~0.1 µM.
